# Source: BindingDB's records for doi:10.1006/jmbi.2000.4032 (Cnrs, 2000)
# Key:
# [1] = target: T1, Retinoic acid receptor beta [200-419] (Homo sapiens, UniProt P10826); test: Retinoid Competition Binding Assay; settings: pH 7.9; 4 °C
# T1 construct: 200-419
# T1 sequence (P10826 whole entry): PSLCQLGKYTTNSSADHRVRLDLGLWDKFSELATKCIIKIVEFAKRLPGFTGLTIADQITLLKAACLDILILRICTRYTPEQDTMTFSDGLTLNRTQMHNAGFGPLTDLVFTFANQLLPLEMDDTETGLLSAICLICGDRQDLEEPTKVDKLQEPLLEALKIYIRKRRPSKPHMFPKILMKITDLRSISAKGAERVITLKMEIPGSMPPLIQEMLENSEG
# [2] = target: T2, Retinoic acid receptor alpha [200-419] (Homo sapiens, UniProt P10276); test: Retinoid Competition Binding Assay; settings: pH 7.9; 4 °C
# T2 construct: 200-419
# T2 sequence (P10276 whole entry): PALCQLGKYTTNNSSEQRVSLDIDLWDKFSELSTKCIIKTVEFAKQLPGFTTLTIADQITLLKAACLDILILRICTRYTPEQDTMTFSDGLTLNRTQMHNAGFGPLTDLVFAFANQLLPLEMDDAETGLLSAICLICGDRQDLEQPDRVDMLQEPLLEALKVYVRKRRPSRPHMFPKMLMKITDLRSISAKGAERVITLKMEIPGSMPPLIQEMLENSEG
smiles,measurement,setting,value
CC1(C)CCC(C)(C)c2cc(C(=O)/C=C/c3ccc(C(=O)O)cc3)ccc21 [Ch 80],Kd,[1],3.5 nM
same,Kd,[2],0.4 nM
